In ChEMBL document CHEMBL4706604, “Design, synthesis and biological evaluation of indanone-chalcone hybrids as potent and selective hCES2A inhibitors” (Eur J Med Chem, 2021) one finds IC50 and half-life data, which are given here for 11 compounds.

Series [1] addresses T1, Cocaine esterase (Homo sapiens, UniProt O00748).
T1 sequence (O00748 whole entry): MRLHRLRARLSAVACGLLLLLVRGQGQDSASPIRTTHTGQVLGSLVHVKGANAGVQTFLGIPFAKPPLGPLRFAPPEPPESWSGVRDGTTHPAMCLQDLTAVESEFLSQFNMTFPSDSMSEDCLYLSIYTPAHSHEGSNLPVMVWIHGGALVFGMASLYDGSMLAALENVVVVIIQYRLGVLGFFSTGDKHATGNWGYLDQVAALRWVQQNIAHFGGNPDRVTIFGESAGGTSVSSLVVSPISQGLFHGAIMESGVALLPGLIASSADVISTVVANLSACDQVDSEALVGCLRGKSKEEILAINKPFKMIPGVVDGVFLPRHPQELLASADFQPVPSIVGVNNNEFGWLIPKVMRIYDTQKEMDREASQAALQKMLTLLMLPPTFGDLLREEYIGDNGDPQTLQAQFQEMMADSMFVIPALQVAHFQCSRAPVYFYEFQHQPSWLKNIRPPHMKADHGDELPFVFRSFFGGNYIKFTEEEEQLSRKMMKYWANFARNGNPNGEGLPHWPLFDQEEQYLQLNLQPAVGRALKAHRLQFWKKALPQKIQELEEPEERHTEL
Nature of the series: Inhibition of hCES2A in human liver microsome assessed as reduction in fluorescein diacetate hydrolysis preincubated for 10 mins followed by substrate addition measured after 20 mins by fluorescence analysis. Format: microsomes. In general terms: Liver microsomes are a subcellular fraction often used to study metabolism.

Series [2] can be described thus: Metabolic stability at phase 1 in human liver microsomes assessed as half life at 10 uM by LC-UV analysis.
The nature of series [3]: Metabolic stability at phase 2 in human liver microsomes assessed as half life at 10 uM by LC-UV analysis.
For series [4], the target named is T2, Liver carboxylesterase 1 (Homo sapiens, UniProt P23141).
T2 sequence (P23141 whole entry): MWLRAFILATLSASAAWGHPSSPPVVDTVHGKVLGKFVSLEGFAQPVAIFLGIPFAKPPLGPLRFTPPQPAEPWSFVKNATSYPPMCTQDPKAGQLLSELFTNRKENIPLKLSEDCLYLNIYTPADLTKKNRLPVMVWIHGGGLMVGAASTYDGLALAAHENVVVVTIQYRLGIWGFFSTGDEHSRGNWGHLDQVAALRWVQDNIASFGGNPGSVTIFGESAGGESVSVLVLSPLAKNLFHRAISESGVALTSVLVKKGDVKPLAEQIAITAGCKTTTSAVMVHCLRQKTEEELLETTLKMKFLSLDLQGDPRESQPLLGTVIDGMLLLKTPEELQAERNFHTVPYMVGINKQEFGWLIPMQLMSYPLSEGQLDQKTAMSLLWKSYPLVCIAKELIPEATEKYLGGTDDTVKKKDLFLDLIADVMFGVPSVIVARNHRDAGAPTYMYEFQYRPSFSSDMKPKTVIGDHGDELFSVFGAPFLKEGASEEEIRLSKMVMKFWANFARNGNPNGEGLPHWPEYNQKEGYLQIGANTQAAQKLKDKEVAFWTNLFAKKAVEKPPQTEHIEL
Briefly: Inhibition of hCES1A in human liver microsome assessed as reduction in D-Iuciferin methyl ester hydrolysis preincubated for 10 mins followed by substrate addition measured after 10 mins by luminescence analysis. It counts as microsomes.

Series [5] addresses Cholinesterase (Homo sapiens, UniProt P06276). Briefly: Inhibition of BChE in human plasma assessed as reduction in butyrylthiocholineiodide hydrolysis preincubated for 3 mins followed by substrate addition. It counts as cell-free.

pIC50: −log10 of the molar value.

Cholinesterase, sequence (P06276 whole entry): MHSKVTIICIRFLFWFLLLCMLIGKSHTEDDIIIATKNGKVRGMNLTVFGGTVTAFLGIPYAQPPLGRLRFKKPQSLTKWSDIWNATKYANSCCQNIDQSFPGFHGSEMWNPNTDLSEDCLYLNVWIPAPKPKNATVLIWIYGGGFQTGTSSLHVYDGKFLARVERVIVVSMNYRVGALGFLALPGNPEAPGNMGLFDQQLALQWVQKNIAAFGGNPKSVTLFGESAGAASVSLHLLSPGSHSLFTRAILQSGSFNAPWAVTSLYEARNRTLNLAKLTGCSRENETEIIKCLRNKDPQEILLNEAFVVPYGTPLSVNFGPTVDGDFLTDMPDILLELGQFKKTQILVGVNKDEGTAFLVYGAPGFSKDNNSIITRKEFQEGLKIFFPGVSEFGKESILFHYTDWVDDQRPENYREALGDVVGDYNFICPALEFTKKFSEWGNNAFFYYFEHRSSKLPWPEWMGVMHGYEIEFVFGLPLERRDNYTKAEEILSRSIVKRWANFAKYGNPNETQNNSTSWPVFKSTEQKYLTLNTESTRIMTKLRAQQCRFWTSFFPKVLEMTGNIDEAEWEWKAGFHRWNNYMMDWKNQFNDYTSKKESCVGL

By pIC50 is commonly meant the IC50 on a negative log10 scale, so that one unit is a factor of ten. Consider `COc1cc(/C=C2\Cc3ccc(N)cc3C2=O)ccc1O`, for which the pIC50 in series [1] was 5.83. As usually defined, the half-life is the time needed for the level to fall by half in the phase considered. As to `COc1cc(/C=C2\Cc3ccc(N4CCCC4)cc3C2=O)ccc1O`, the half-life at 10 µM is 1.6 h in series [2] and 1.72 h in series [3]. The pIC50 in series [4] and in series [5] was less than 4.00 each time. Turning to `COc1cc(/C=C2\Cc3ccc(OC(C)C)cc3C2=O)ccc1O`, the negative-log IC50 (pIC50) in series [1] is 5.54. On the same count and under the same terms, then `COc1ccc(/C=C2\Cc3ccc(O)cc3C2=O)c(OC)c1OC`, with 5.28. Same read-out and setting: as for `COc1ccc(/C=C2\Cc3ccc(O)cc3C2=O)cc1`, the figure is 4.25; as for `CCCOc1ccc2c(c1)C(=O)/C(=C/c1ccc(O)c(OC)c1)C2`, 5.79. Still for that read-out and setting: as for `O=C1/C(=C/c2ccc(O)c(O)c2)Cc2ccc(O)cc21`, the figure is 5.55. With `COc1cc(/C=C2\Cc3ccccc3C2=O)ccc1O`, the pIC50 in series [1] was 5.88. `COc1ccc2c(c1)C(=O)/C(=C/c1ccc(O)c(OC)c1)C2`: the pIC50 in series [1] was 5.54. Still for that read-out and setting: as for `O=C1/C(=C/c2ccc(O)cc2)Cc2ccc(O)cc21`, the figure is 5.23. Same read-out and setting: as for `COc1cc(/C=C2\Cc3ccc(O)cc3C2=O)ccc1O`, the figure is 5.96.
